Measured values as given in ChEMBL document CHEMBL1201862, “PubChem BioAssay data set” (2004).
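A five-concentration, 48-hour dose response in 96-well plates underlies each endpoint, interpolated linearly between surrounding concentrations. At the GI50, growth is halved.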 Calls of active or inactive are those of the source. Rule as the data show it: active = GI50 up to about 1.1 µM and inactive = higher.

Tests used:
Test in all cases: inhibition of tumour cell growth, NCI panel, 48 h
[1] = tested on: SF-539
[2] = tested on: HOP-92
[3] = tested on: EKVX
[4] = tested on: DMS-114
[5] = tested on: LOX IMVI
[6] = tested on: OVCAR-5
[7] = tested on: XF498
[8] = tested on: UACC-257
[9] = tested on: NCI/ADR-RES
[10] = tested on: NCI-H226
[11] = tested on: UACC-62
[12] = tested on: A549
[13] = tested on: HOP-62

Measured: GI50

CC/C=C\C/C=C\C/C=C\CCCCCCCC(=O)OC [METHYL LINOLENATE]
inactive: [1] > 100 µM | [2] > 100 µM | [3] > 100 µM | [4] > 100 µM | [5] 18.9 µM | [6] > 100 µM | [7] > 100 µM | [8] > 100 µM | [9] > 100 µM | [10] > 100 µM | [11] > 100 µM | [12] > 100 µM | [13] > 100 µM

O=C1NC(O)CCN1C1OC(CO)C(O)C1O (stereo unspecified)
inactive: [1] > 250 µM | [2] > 250 µM | [3] > 250 µM | [4] > 250 µM | [5] > 136 µM | [6] > 92 µM | [7] > 250 µM | [8] > 250 µM | [9] > 250 µM | [10] > 250 µM | [11] > 250 µM | [12] > 250 µM | [13] > 228 µM
